Consider six molecules from patent US20260102501A1, “ANTI-CANCER NUCLEAR HORMONE RECEPTOR-TARGETING COMPOUNDS” (Nuvation Bio Inc., priority 2022, published 2026).

Changes are numbered by the printed parent chain. Where a name gives a salt, the structure may show the parent alone. Read-outs that look alike come from different tables or passages of the source.

For one test, the system named is LNCap cells. As to the kind of experiment: Cell viability assay (CellTiterGlo). It is filed as cell-based. Conditions: Homo sapiens, 144 h. Background: ATP-based viability assays read luminescence as a measure of living cells.
A further test has as its system 22Rv1 cells. As to the kind of experiment: Cell viability assay (CellTiterGlo). Conditions: Homo sapiens, 22Rv1, 144 h, read-out: 22RV1 (IC50, nM).
Test [1] deals with T1, AR (cytosol from LnCaP cells) (Homo sapiens, UniProt P10275, T878A).
T1 sequence (P10275 1-920 T878A): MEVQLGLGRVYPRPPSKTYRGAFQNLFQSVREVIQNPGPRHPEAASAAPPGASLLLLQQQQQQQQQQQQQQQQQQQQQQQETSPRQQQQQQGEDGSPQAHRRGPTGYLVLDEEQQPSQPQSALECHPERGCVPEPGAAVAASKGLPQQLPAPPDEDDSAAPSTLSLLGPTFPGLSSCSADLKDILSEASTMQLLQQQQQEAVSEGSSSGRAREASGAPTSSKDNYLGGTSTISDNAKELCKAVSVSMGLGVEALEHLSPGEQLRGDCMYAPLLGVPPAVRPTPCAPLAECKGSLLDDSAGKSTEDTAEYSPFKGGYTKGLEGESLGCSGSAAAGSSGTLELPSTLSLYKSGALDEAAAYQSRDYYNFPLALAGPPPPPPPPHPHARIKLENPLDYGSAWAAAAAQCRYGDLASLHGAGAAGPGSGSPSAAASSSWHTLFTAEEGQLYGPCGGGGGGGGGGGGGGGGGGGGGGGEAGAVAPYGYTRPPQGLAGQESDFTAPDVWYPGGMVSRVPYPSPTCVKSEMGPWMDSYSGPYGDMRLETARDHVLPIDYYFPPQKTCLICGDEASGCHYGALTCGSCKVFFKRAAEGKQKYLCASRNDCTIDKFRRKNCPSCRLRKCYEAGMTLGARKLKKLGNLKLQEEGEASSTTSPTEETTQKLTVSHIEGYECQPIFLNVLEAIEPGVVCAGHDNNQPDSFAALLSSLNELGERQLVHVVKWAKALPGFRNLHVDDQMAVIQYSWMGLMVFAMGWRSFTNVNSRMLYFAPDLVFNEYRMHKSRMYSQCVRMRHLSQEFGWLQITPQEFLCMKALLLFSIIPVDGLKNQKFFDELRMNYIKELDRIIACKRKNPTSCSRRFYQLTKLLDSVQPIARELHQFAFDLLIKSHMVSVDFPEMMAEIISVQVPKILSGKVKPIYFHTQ
The test is described as follows: AR binding assay (3H-R1881 displacement).
Procedure: The plate was then centrifuged at 3000 rpm for 30 minutes at 4° C.

The target in test [2] is T2, full-length androgen receptor (HEK293 cells stably expressing) (Homo sapiens, UniProt P10275).
T2 sequence (P10275 1-920): T1 sequence (P10275 1-920 T878A) with A878T
As to the kind of experiment: AR antagonism assay (luciferase reporter).
Procedure: AR antagonism assay: To evaluate AR antagonist activity, test compound was added to the assay plate (top dose 10 μM, 3 fold serial dilution, 10 point dose response). HEK293 cells stably expressing the full-length androgen receptor were seeded at a density of 20000 cells/well in the assay plate. The assay plate was then incubated at room temperature for 10 minutes and at 37° C. 5% CO2 for 20 minutes. Testosterone was added to the assay plate at 1 nM final concentration and the assay plate incubated at 37° C., 5% CO2 for 20 h. […] Steady-glo was added to the assay plate and mixed at room temperature for 20 minutes on an orbital shaker, before reading out on the En Vision plate reader.

Test [3] addresses T3, ligand binding domain of the glucocorticoid receptor (HEK293 cells stably expressing) (Homo sapiens, UniProt P04150).
T3 sequence (P04150 524-758 limits assumed): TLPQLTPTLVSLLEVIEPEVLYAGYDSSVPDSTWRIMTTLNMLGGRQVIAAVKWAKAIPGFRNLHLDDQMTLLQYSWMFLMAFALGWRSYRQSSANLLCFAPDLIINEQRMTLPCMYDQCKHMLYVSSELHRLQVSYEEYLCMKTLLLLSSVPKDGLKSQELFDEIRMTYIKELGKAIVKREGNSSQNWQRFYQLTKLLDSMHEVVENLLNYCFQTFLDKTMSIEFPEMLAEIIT
As to the kind of experiment: GR antagonism assay (luciferase reporter). In general terms: Reporter assays use an easily measured gene product as a stand-in for the process of interest.

The target in test [4] is T4, GR (cytosol from IM-9 cells) (Homo sapiens, UniProt P04150).
T4 sequence (P04150 1-777): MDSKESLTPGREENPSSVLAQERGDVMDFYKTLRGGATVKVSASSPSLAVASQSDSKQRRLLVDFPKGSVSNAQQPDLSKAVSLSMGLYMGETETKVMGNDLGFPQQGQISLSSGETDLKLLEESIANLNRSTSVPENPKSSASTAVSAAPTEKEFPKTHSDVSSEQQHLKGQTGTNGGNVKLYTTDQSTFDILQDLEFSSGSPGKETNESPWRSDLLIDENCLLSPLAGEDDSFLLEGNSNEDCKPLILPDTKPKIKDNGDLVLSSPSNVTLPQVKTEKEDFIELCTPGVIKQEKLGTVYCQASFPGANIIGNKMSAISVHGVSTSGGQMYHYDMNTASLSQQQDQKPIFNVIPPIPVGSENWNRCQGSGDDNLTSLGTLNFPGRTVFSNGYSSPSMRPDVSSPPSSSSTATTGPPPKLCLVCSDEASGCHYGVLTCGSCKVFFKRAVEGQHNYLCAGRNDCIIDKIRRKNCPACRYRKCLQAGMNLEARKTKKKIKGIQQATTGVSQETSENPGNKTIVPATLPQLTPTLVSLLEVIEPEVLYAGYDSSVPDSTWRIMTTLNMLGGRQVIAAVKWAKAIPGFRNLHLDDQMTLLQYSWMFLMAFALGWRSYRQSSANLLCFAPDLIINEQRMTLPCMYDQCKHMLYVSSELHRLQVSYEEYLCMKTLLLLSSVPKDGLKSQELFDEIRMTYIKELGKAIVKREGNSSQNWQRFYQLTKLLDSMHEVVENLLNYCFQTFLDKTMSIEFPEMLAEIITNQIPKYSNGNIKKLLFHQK
The test is described as follows: GR binding assay (3H-Dexamethasone displacement).

The next test has as its system IEC6 cells. The test is described as follows: Cell viability assay (CellTiterGlo). The conditions noted are these: Rattus norvegicus, IEC-6, 144 h, read-out: IEC-6 (IC50, nM).
Where [5] appears, read: 6 days incubation, CellTiterGlo, read-out: LNCap (IC50).

As a reminder, the IC50 is the concentration that gives 50% inhibition.

Procedure for 22Rv1 cells: Cell viability assay: LNCap, 22Rv1, MCF7, MDAMB361, T47D, and IEC6 cells were seeded at a density of 500-2000 cells/well in 96 well plates, and a ‘T0’ (timepoint 0) was included along with the assay plate. The plates were then incubated at 37° C., 5% CO2 in a cell culture incubator overnight. On the next day, the ‘T0’ plate was assayed using CellTiterGlo (Promega, Inc) according to the manufacturer's instructions. The appropriate compounds were diluted in DMSO and added to the assay plate (final DMSO concentration of 0.1-0.2%) on the next day. The assay plates were incubated for 6 days at 37° C., 5% CO2. After the incubation period, the plates were assayed using CellTiterGlo (Promega, Inc) according to the manufacturer's instructions and luminescence was read on the En Vision plate reader. […] GraphPadPrism was used to analyze the data and determine GI50/IC50 values.

On to `CC[C@@]1(OC(=O)N2CCN(CC3CCN(c4ccc(C(=O)N[C@H]5CC[C@H](Oc6ccc(C#N)c(Cl)c6C)CC5)nn4)CC3)CC2)C(=O)OCc2c1cc1n(c2=O)Cc2cc3cc(OC)ccc3nc2-1` [Compound 23, (S)-4-Ethyl-9-methoxy-3,14-dioxo-3,4,12,14-tetrahydro-1H-pyrano[3′,4′:6,7]indolizino[1,2-b]quinolin-4-yl 4-((1-(6-(((1r,4r)-4-(3-chloro-4-cyano-2-methylphenoxy)cyclohexyl)carbamoyl)pyridazin-3-yl)piperidin-4-yl)methyl)piperazine-1-carboxylate], for which the IC50 was 10 to 100 nM with LNCap cells (setting [5]); 101 to 1000 nM with 22Rv1 cells; 10 to 100 nM in test [1]; greater than 1000 nM in test [2]; greater than 1000 nM in test [3]; greater than 1000 nM in test [4].
On to `CC[C@@]1(O)C(=O)OCc2c1cc1n(c2=O)Cc2cc3c(CN4CCN(C(=O)C5CCN(c6ccc(C(=O)N[C@H]7CC[C@H](Oc8ccc(C#N)c(Cl)c8C)CC7)nn6)CC5)CC4)c(O)ccc3nc2-1` [Compound 25, N-((1r,4r)-4-(3-Chloro-4-cyano-2-methylphenoxy)cyclohexyl)-6-(4-(4-(((S)-4-ethyl-4,9-dihydroxy-3,14-dioxo-3,4,12,14-tetrahydro-1H-pyrano[3′,4′:6,7]indolizino[1,2-b]quinolin-10-yl)methyl)piperazine-1-carbonyl)piperidin-1-yl)pyridazine-3-carboxamide], for which the IC50 in the test on LNCap cells (setting [5]) is less than 10 nM; in the test with 22Rv1 cells, 10 to 100 nM; in test [1], less than 10 nM; in test [2], greater than 1000 nM; in test [3] it was greater than 1000 nM; in test [4] it was greater than 1000 nM.
With `CC[C@@]1(O)C(=O)OCc2c1cc1n(c2=O)Cc2cc3c(CN4CCN(CC5CCN(c6ccc(C(=O)N[C@H]7CC[C@H](Oc8ccc(C#N)c(Cl)c8C)CC7)nn6)CC5)CC4)c(O)ccc3nc2-1` [Compound 26, N-((1r,4r)-4-(3-Chloro-4-cyano-2-methylphenoxy)cyclohexyl)-6-(4-((4-(((S)-4-ethyl-4,9-dihydroxy-3,14-dioxo-3,4,12,14-tetrahydro-1H-pyrano[3′,4′:6,7]indolizino[1,2-b]quinolin-10-yl)methyl)piperazin-1-yl)methyl)piperidin-1-yl)pyridazine-3-carboxamide Formate], the IC50 in the test with LNCap cells (setting [5]) is less than 10 nM; in the test on 22Rv1 cells it was 10 to 100 nM; in test [1], less than 10 nM; in test [2], greater than 1000 nM; in test [3], greater than 1000 nM; in test [4] it was greater than 1000 nM.
In the case of `CC[C@@]1(O)C(=O)OCc2c1cc1n(c2=O)Cc2cc3c(CN4CCN(C(=O)C5CCN(c6ccc(C(=O)N[C@H]7CC[C@H](Oc8ccc(C#N)c(Cl)c8C)CC7)nn6)CC5)CC4)c(OC(=O)N4CCN(C)CC4)ccc3nc2-1` [Compound 27, (S)-10-((4-(1-(6-(((1r,4r)-4-(3-Chloro-4-cyano-2-methylphenoxy)cyclohexyl)carbamoyl)-pyridazin-3-yl)piperidine-4-carbonyl)piperazin-1-yl)methyl)-4-ethyl-4-hydroxy-3,14-dioxo-3,4,12,14-tetrahydro-1H-pyrano[3′,4′:6,7]indolizino[1,2-b]quinolin-9-yl 4-methylpiperazine-1-carboxylate Formate], the concentration for half-maximal inhibition (IC50) is 10 to 100 nM with LNCap cells (read-out: LNCap (IC50, nM)); 101 to 1000 nM in the test with 22Rv1 cells; less than 10 nM in test [1]; 101 to 1000 nM in test [2]; greater than 1000 nM in test [3]; 10 to 100 nM in test [4].
Consider `CC[C@@]1(O)C(=O)OCc2c1cc1n(c2=O)Cc2cc3c(CN(C)C)c(OC(=O)N4CCN(CCCCCCN(C)C5CCN(c6ccc(C(=O)N[C@H]7CC[C@H](Oc8ccc(C#N)c(Cl)c8C)CC7)nn6)CC5)CC4)ccc3nc2-1` [Compound No. 22, (S)-10-((Dimethylamino)methyl)-4-ethyl-4-hydroxy-3,14-dioxo-3,4,12,14-tetrahydro-1H-pyrano[3′,4′:6,7]indolizino[1,2-b]quinolin-9-yl 4-(6-((1-(6-(((1r,4r)-4-(3-chloro-4-cyano-2-methylphenoxy)-cyclohexyl)carbamoyl)pyridazin-3-yl)piperidin-4-yl)(methyl)amino)hexyl)piperazine-1-carboxylate Formate], for which the IC50 in the test with LNCap cells (read-out: LNCap (IC50, nM)) was 10 to 100 nM; in the test with 22Rv1 cells, 101 to 1000 nM; in test [1] it was less than 10 nM; in test [2] it was 101 to 1000 nM; in test [3], 101 to 1000 nM; in test [4], 101 to 1000 nM.
In the case of `CC[C@@]1(O)C(=O)OCc2c1cc1n(c2=O)Cc2cc3c(CN4CCN(CC5CCN(c6ccc(N7C(=S)N(c8ccc(C#N)c(Cl)c8)C(=O)C7(C)C)cc6)CC5)CC4)c(O)ccc3nc2-1` [Compound No. 53, (S)-2-chloro-4-(3-(4-(4-((4-((4-ethyl-4,9-dihydroxy-3,14-dioxo-3,4,12,14-tetrahydro-1H-pyrano[3′,4′:6,7]indolizino[1,2-b]quinolin-10-yl)methyl)piperazin-1-yl)methyl)piperidin-1-yl)phenyl)-4,4-dimethyl-5-oxo-2-thioxoimidazolidin-1-yl)benzonitrile], the IC50 in the test with LNCap cells (setting [5]) lay within 10 to 100 nM; with 22Rv1 cells, 10 to 100 nM; in the test on IEC6 cells, 101 to 1000 nM; in test [1], 10 to 100 nM; in test [2] it was 10 to 100 nM.
